Here are results for 16 molecules from patent US4868195A, “Novel enolamides, pharmaceutical compositions and methods of use thereof for activity as modulators of the arachidonic acid cascade” (Warner-Lambert Company, priority 1988, dated 1989).

The first experiment addresses T1, leukotriene receptor (guinea pig lung membranes) (Cavia porcellus, UniProt Q2NNR5).
T1 construct: 20 mg original tissue wet weight of guinea pig lung; tissue Kuiper Rabbit Farm, Gary, IN (animals); host or cells: guinea pig lung, crude membranes
T1 sequence (Q2NNR5 1-340): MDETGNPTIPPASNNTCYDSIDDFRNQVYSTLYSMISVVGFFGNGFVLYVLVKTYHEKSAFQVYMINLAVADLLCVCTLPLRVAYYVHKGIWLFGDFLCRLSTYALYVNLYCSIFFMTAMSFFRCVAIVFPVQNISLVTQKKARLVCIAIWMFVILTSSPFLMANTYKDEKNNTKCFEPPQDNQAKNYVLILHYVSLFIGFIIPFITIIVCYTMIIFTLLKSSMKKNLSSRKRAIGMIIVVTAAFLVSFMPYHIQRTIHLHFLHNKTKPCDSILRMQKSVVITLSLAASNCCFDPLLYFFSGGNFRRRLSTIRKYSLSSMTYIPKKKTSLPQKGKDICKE
The experiment in a line: Binding of ^3 H-Leukotriene D4 to Guinea Pig Lung Membranes (RBL). Conditions: 0.2 nM ^3 H-LTD4, 60 min, 25° C.; read-out: Concentration (M) for 50.0 % Inhibition, IC (RBL). How it is done:
Additionally, the activity, of the compounds having the Formula I of the present invention is determined by the well known leukotriene receptor binding assay that is described by R. F. Bruns, W. J. Thomsen and T. A. Pugsley in Life Sciences, 33, 645 (1983) or the Herxheimer in vivo antiallergy test described in H. Herxheimer, J. Physiol. (London), Vol. 177, p. 251 (1952).
Binding of ^3 H-Leukotriene D4 to Guinea Pig Lung Membranes (RBL)
[14,15-^3 H]leukotriene D4 (^3 H-LTD4) (25 Ci/mmol and 40 Ci/mmol) is purchased from New England Nuclear. Unlabeled LTC4 is a gift of Ono Pharmaceuticals (Japan). LTC4, LTD4, and LTE4 are purchased as methyl esters from Paesel GmbH (Frankfurt, W. Germany). Concentrations of the Paesel leukotrienes are calculated from their absorbance at 280 nm. Leukotriene esters are saponified overnight under N2 in 3.3% potassium carbonate at room temperature. Tritiated leukotrienes are stored as received from New England Nuclear at -20° C. Ono LTC4 (5 μg/ml) is stored at -60° C. in phosphate buffer pH 6.8. Saponified Paesel leukotrienes are stored at -60° C. in 3.3% potassium carbonate (pH 9.0-9.5). Aliquots of leukotrienes are taken from stock solutions immediately after thawing, after which the stock solutions are immediately refrozen. 2-Amino-2-(hydroxymethyl)-1,3-propanediol (Tris) is Sigma pH 7.7 pre-set crystals, and dimethylsulfoxide is Aldrich Gold Label.
Preparation of crude lung membranes
Two pairs of lungs (1.3 g) from freshly sacrificed 300 g male guinea pigs (older animals gave substantially lower binding) from Kuiper Rabbit Farm, Gary, IN are disrupted with a Polytron PT 10 (setting 4) for 30 seconds in 20 ml ice-cold 50 mM Tris adjusted with HCl to pH 7.7 at 25° C. (Tris buffer), filtered through a single layer of gauze to remove connective tissue, and centrifuged at 50,000 xg for ten min. The pellet is resuspended by homogenization with a Polytron in 20 ml Tris buffer, centrifuged at 50,000 xg for ten min., resuspended, incubated at 37° C. for 30 minutes, and centrifuged again. The final pellet is resuspended in Tris buffer and either used fresh or stored at -70° C.
All incubations are in triplicate for 60 minutes at 25° C. in 12×75 mm polystyrene tubes containing 1 ml Tris buffer with 20 mg original tissue wet weight of guinea pig lung nmembranes, 0.2 nM ^3 H-LTD4 (6,000-11,000 cpm), 10 mM MgCl2, and 1% dimethylsulfoxide Leukotrienes are diluted in Tris buffer. All other test compounds dissolved at 10 mM in dimethylsulfoxide on the same day as the experiment, and diluted in dimethylsulfoxide to 100× the final incubation concentration. Control incubations receive an equal volume (10 μl) of dimethylsulfoxide; the resulting concentration of dimethylsulfoxide had no effect on binding. ^3 H-LTD4 is diluted to 2 nM in Tris buffer. The membrane suspension (20 mg/0.89 ml) contains sufficient MgCl2 to give 10 mM final concentration in the incubation. […] All additions are performed at 0° C. Immediately after the last addition, the incubation is initiated by agitating the rack of tubes on a vortex mixer and warming to 25° C. in a water bath. Tubes are vortexed at least once more during the incubation to ensure that the membranes remained suspended. Incubations are terminated after 60 minutes by filtering under reduced pressure through 25 mm Whatman GF/B filters followed by rapid washing three times with 4 ml of ice-cold Tris buffer. Filters are added to scintillation vials with 8 ml Formula 947 (New England Nuclear), left overnight, shaken, and the radioactivity counted in a scintillation counter (efficiency 40%). Nonspecific binding, defined as binding of ^3 H-LTD4 in the presence of 100 nM LTC4, is 300-500 cpm for all lots of ^3 H-LTD4. Binding to the filters in the absence of tissue is about 100 cpm, and is not affected by unlabeled LTC4. Specific binding, defined as total binding minus nonspecific binding, varied considerably from lot to lot of ^3 H-LTD4. […]
In the case of `CC(C)(C)c1cc(CCc2ccc(NC(=O)C3=C(O)c4ccccc4S(=O)(=O)C3)cc2)cc(C(C)(C)C)c1O` [Example 77, 2H-1-Benzothiopyran-3-carboxamide, N-[4-[2-[3,5-bis(1,1-dimethylethyl)-4-hydroxyphenyl]ethyl]phenyl]-4-hydroxy-, 1,1-dioxide], the IC50 is 5.96e-06 M. The same measure, in the same setting: next, `O=C(Nc1ccc(CCc2ccc(Cl)c(Cl)c2)cc1)C(=O)C1=C(O)c2ccccc2S(=O)(=O)C1` [Example 69, 2H-1-Benzothiopyran-3-acetamide, N-[4-[2-(3,4-dichlorophenyl)ethyl]phenyl]-4-hydroxy-α-oxo-, 1,1-dioxide]: 2.04e-05 M. The same measure, in the same setting: next, `O=C(Nc1ccc(CCc2ccc(Oc3ccccc3)cc2)cc1)C1=C(O)c2ccccc2S(=O)(=O)C1` [Example 75, 2H-1-Benzothiopyran-3-carboxamide, 4-hydroxy-N-[4-[2-(4-phenoxyphenyl)ethyl]phenyl]-, 1,1-dioxide]: 5.58e-06 M.

For the next experiment, the system named is Human Leukocyte Lipoxygenase. The experiment can be described thus: Human Leukocyte Lipoxygenase Assay (LDA-H). It is filed as biochemical. Conditions: Concentration 2.50 E -5 M. Here is the method: Human Leukocyte Lipoxygenase Assay (LDA-H)
Whole blood is collected from normal volunteers and spun in a refrigerated centrifuge for four minutes at 1°-6° C. at 3800 g. The buffy coat is manually separated and washed twice with chilled 0.83% NH4 Cl and centrifuged at 1000 RPM for ten minutes at 4° C. The white cell is suspended in culture media-EMEM supplemented with 6% Agamma human serum, tricine buffer, and neomycin and recentrifuged at 1000 g to yield a pellet containing the leukocytes used for the preparation of the acetone pentane powder.
The acetone-pentane powder is prepared utilizing a modification of the procedure reported for human platelet lipoxygenase. See Siegel, et al, Arachidonate Metabolism via Lipoxygenase and 12-L-hydroperoxy-5 Eicosatetraenoic Acid Peroxidase Sensitive to Antiinflammatory Drugs, Proc. Natl. Acad. Sci., USA 77: 308, 1980 and D. P. Wallach and V. R. Brown, A Novel Preparation of Human Platlet Lipoxygenase, Biochem. Biophys. Acta. 663: 361, 1981. Buffy coat prepared above is resuspended in 5-7 volumes of cold 0.1M Tris buffer, pH 7.4 containing 0.154M NaCl. The suspension is centrifuged at 13,300 g for ten minutes at 4° C. The resultant pellet is retained, resuspended in five volumes of cold acetone, recentrifuged at 13,300 g and resuspended in five volumes of cold pentane. The pentane suspension is centrifuged for ten minutes at 13,300 g to give a pellet which is dried in the cold under vacuum with periodic pulverization. The dry powder is stable for several weeks when stored at -80° C.
Enzyme stock solution is prepared in the following manner. About 15 mg of the acetone-pentane powder is suspended in 4 ml of cold tris buffer (0.1M, pH 7.4), allowed to stand for five minutes, and homogenized thoroughly. The homogenate is sonicated three times for 15 seconds each time, diluted to 7 ml with cold tris buffer (0.1M, pH 7.4), and centrifuged at 4° C. for 60 minutes at 13,300 g. the supernatent is retained and diluted to a total of 10 ml with cold tris buffer (0.1M, pH 7.4) to give the stock enzyme solution. Additional dilutions of 2-50 fold are done as necessary to locate optimal enzyme reaction rate in the assay described below.
Substrate solution is prepared at 100 μM or 1.0 μM concentrations of arachidonic acid or linoleic acid in 0.1M tris buffer, pH 9.0 containing 20% ethanol.
The enzyme reaction is followed spectrophotometrically by the appearance of a conjugated diene product at 234 nm. The reaction is monitored at 24° C. using a Gilford Model 2600 spectrophotometer. […] The effects of inhibitors on the reaction are compared with control reactions run under indentical conditions. Routinely, each compounds of the present invention is incubated with the enzyme for five minutes prior to addition of substrate to initiate the reaction. Inhibition expressed as IC50 as molar concentration of the compound required to reduce reaction rate to 50% control.
As for `COc1ccc(CCc2ccc(NC(=O)C(=O)C3Oc4cc5ccccc5cc4C3=O)cc2)cc1OC` (stereo not drawn) [Example 117, Naptho[2,3-b]furan-2-acetamide, N-[4-[2-(3,4-dimethoxyphenyl)ethyl]phenyl]-2,3-dihydro-α,3-dioxo], the “% Inhibition (LDAH)” value was 0.0%. Still for that read-out and setting: next, `O=C(Nc1ccc(Cc2ccc(O)c(O)c2)cc1)C1CS(=O)(=O)c2ccccc2C1=O` (stereo not shown) [Example 14, N-[4-[(3,4-Dihydroxyphenyl)methyl]phenyl]-3,4-dihydro-4-oxo-2H-1-benzothiopyran-3-carboxamide, 1,1-dioxide]: 0.0%.

The same experiment, now with this note: Concentration 7.90 E -9 M.
Turning to `CCCCCCCCCCc1ccc(NC(=O)C(=O)c2oc3cc(OC)c(OC)cc3c2O)cc1` [Example 119, 2-Benzofuranacetamide, N-[4-decylphenyl]-3-hydroxy-5,6-dimethoxy-α-oxo], the “% Inhibition (LDAH)” value stood at 50.0%.

Staying with this experiment, now noted: Concentration 8.00 E -5 M.
Turning to `COc1ccc(CCc2ccc(NC(=O)C3CS(=O)(=O)c4ccccc4C3=O)cc2)cc1NC(C)=O` (stereo not shown) [Example 50, N-[4-[2-(3-Acetylamino-4-methoxy)ethyl]phenyl]-3,4-dihydro-4-oxo-2H-1-benzothiopyran-3-carboxamide, 1,1-dioxide], the “% Inhibition (LDAH)” value was 0.0%.

With `COc1ccc(CCc2ccc(NC(=O)C(=O)c3oc4cc(OC)c(OC)cc4c3O)cc2)cc1OC` [Example 115, 2-Benzofuranacetamide, N-[4-[2-(3,4-dimethoxyphenyl)ethyl]phenyl]-3-hydroxy-5,6-dimethoxy-α-oxo], the “% Inhibition (LDAH)” value is recorded as 0.0%.

The experiment is the same for the next values; noted with them: acetone-pentane powder enzyme, 234 nm, 24° C., 5 min preincubation; read-out: Concentration (M) for 50.0 % Inhibition, IC (LDAH).
Regarding `CCCCCCCCCCc1ccc(NC(=O)C(=O)C2=C(O)c3ccccc3S(=O)(=O)C2)cc1` [Example 9, N-(4-Decylphenyl)-4-hydroxy-α-oxo-2H-1-benzothiopyran-3-acetamide, 1,1-dioxide], the IC50 was found to be 7.7e-05 M. Same read-out and setting: as for `COc1ccc(CCc2ccc(NC(=O)C(=O)C3=C(O)c4ccccc4OC3)cc2)cc1OC` [Example 152], the figure is 5.7e-07 M; as for `CCCCCCCCCCc1ccc(NC(=O)C(=O)c2sc3ccc(Cl)cc3c2O)cc1` [Example 135, Benzo[b]thiophene-2-acetamide, 5-chloro-N-(4-decylphenyl)-3-hydroxy-α-oxo], 2.5e-05 M; as for “N-[4-[3-(3,4-Dihydroxyphenyl)propyl]phenyl]-3,4-dihydro-2H-1-benzothiopyran-3-carboxamide, 1,1-dioxide [Example 22]”, 1.3e-05 M.

For `COc1cccc2c(O)c(C(=O)C(=O)Nc3ccc(CCc4ccc(O)c(O)c4)cc3)oc12` [Example 123, 2-Benzofuranacetamide, N-[4-[2-(3,4-dihydroxyphenyl)ethyl]phenyl]-3-hydroxy-7-methoxy-α-oxo], the IC50 came to 2.5e-05 M. With `O=C(Nc1ccc(CCc2ccc(O)c(O)c2)cc1)C1Oc2c(n(-c3ccccc3)c3ccccc23)C1=O` (stereo not shown) [Example 166, 2H-Furo[3,2-b]indole-2-carboxamide, N-[4-[2-(3,4-dihydroxyphenyl)ethyl]phenyl]-3,4-dihydro-3-oxo-4-phenyl], the IC50 is 2.7e-05 M. For the molecule `Cc1cc2[nH]c(C(=O)C(=O)Nc3ccc(CCc4ccc(O)c(O)c4)cc3)c(O)c2cc1C` [Example 177, 1H-Indole-2-acetamide, N-[4-[2-(3,4-dihydroxyphenyl)ethyl]phenyl]-3-hydroxy-5,6-dimethyl-α-oxo], the IC50 came to 8e-05 M. Still for that read-out and setting: next, `O=C(O)c1ccc(CCc2ccc(NC(=O)C3CS(=O)(=O)c4ccccc4C3=O)cc2)cc1` (stereo not shown) [Example 12, 4-[2-[4-[[(3,4-Dihydro-4-oxo-2H-1-benzothiopyran-3-yl)carbonyl]amino]phenyl]ethyl]benzoic acid, 1,1-dioxide]: 3.4e-06 M.
